In ChEMBL document CHEMBL4513161, “CO-ADD screening of MMV (CH) - Pandemic Response Box” (2021):
In brackets after ≈: the same amount, converted by molar mass.

Key:
Klebsiella pneumoniae = experiment: microbe, parasite or virus in culture; conditions: ATCC 700603, 18 h, ASSAY_TEST Inhibition of Bacterial Growth, detection method Absorption (OD600), MEDIA CAMHB, plate type 384well, NBS, CORNING #3640
Description: Antibacterial activity against Klebsiella pneumoniae MDR ATCC 70063 (CO-ADD:GN_003); MIC in CAMBH media using NBS plates, by OD(600)

Acinetobacter baumannii = experiment: microbe, parasite or virus in culture; conditions: ATCC 19606, 18 h, ASSAY_TEST Inhibition of Bacterial Growth, detection method Absorption (OD600), MEDIA CAMHB, plate type 384well, NBS, CORNING #3640
Description: Antibacterial activity against Acinetobacter baumannii ATCC 19606 (CO-ADD:GN_034); MIC in CAMBH media using NBS plates, by OD600

HEK293 = experiment: cells; format: functional, Homo sapiens, ATCC CRL1573; conditions: Homo sapiens, ATCC CRL1573, HEK293; ASSAY_TEST Inhibition of Cell Viability; detection method Resazurin; Fluorescence (ex560/em590); MEDIA DMEM with 10% FBS; plate type 384well; TC; CORNING #3712; time 18 hr; read-out: CC50
Escherichia coli = experiment: microbe, parasite or virus in culture; conditions: ATCC 25922, 18 h, ASSAY_TEST Inhibition of Bacterial Growth, detection method Absorption (OD600), MEDIA CAMHB, plate type 384well, NBS, CORNING #3640
Description: Antibacterial activity against Escherichia coli ATCC 25922 (CO-ADD:GN_001); MIC in CAMBH media using NBS plates, by OD(600)

Pseudomonas aeruginosa [1] = experiment: microbe, parasite or virus in culture; conditions: ATCC 27853, 18 h, ASSAY_TEST Inhibition of Bacterial Growth, detection method Absorption (OD600), MEDIA CAMHB, plate type 384well, NBS, CORNING #3640
Description: Antibacterial activity against Pseudomonas aeruginosa ATCC 27853 (CO-ADD:GN_042); MIC in CAMBH media using NBS plates, by OD(600)

Candida albicans = experiment: microbe, parasite or virus in culture; conditions: ATCC 90028, ASSAY_TEST Inhibition of Fungal Growth, detection method Absorption (OD530), plate type 384well, NBS, CORNING #3640
Description: Antifungal activity against Candida albicans ATCC 90028 (CO-ADD:FG_001); MIC in YNB media using NBS plates, by OD630

Pseudomonas aeruginosa [2] = experiment: Antibacterial activity against Pseudomonas aeruginosa PAO397 [PAO1 d(mexAB-oprM) d(mexCD-oprJ) d(mexEF-oprN) d(mexJKL) d(mexXY) d(opmH)] (CO-ADD:GN_211); MIC in CAMBH media using NBS plates, by OD(600); format: functional; conditions: ASSAY_TEST Inhibition of Bacterial Growth, detection method Absorption (OD600), MEDIA CAMHB, plate type 384well, CORNING #3640, time 18 hr
Staphylococcus aureus = experiment: microbe, parasite or virus in culture; conditions: ATCC 43300, 18 h, ASSAY_TEST Inhibition of Bacterial Growth, detection method Absorption (OD600), MEDIA CAMHB, plate type 384well, NBS, CORNING #3640
Description: Antibacterial activity against Staphylococcus aureus MRSA ATCC 43300 (CO-ADD:GP_020); MIC in CAMBH media, using NBS plates, by OD(600)

Description for Cryptococcus neoformans: Antifungal activity against Cryptococcus neoformans H99 ATCC 208821 (CO-ADD:FG_002); MIC in YNB media using NBS plates, by Resazurin OD(600-570)

Row | MIC (Klebsiella pneumoniae) [µM] | MIC (Acinetobacter baumannii) [µM] | MIC (Escherichia coli) [µM] | MIC (Pseudomonas aeruginosa [1]) [µM] | MIC (Candida albicans) [µM] | MIC (Pseudomonas aeruginosa [2]) [µM] | MIC (Cryptococcus neoformans) [µM] | MIC (Staphylococcus aureus) [µM] | SMILES | CC50 (HEK293) [µM]
1 | > 20 | > 20 | > 20 | > 20 | > 20 | > 20 | > 20 | > 20 | O=C(Cc1ccccc1F)Nc1nc2ccccc2[nH]1 | > 20
2 | > 20 | > 20 | > 20 | > 20 | > 20 | > 20 | > 20 | > 20 | FC(F)(F)c1cc(C(F)(F)F)c2ccc3nc(-c4nnco4)cn3c2n1 | > 20
3 | > 20 | > 20 | > 20 | > 20 | > 20 | > 20 | > 20 | > 20 | O=C(Nc1ccc(Cl)c(C(F)(F)F)c1)C(CCCl)C(=O)Nc1ccc(Cl)c(C(F)(F)F)c1 | > 20
4 | > 20 | > 20 | > 20 | > 20 | > 20 | > 20 | > 20 | > 20 | CN(C)CCCOc1ccc(-c2ccc3ncc4c(c3c2)n(C2CCOCC2)c(=O)n4C)cn1 | > 20
5 | > 20 | > 20 | > 20 | > 20 | > 20 | > 20 | > 20 | > 20 | O=C(c1ccccc1)N1CCN(c2ccccc2NC(=O)C(Cl)(Cl)Cl)CC1 | > 20
6 | > 20 | > 20 | > 20 | > 20 | > 20 | > 20 | > 20 | > 20 | Fc1ccc2c(/C=C/c3cccnc3)c[nH]c2c1 | > 20
7 | > 20 | > 20 | > 20 | > 20 | > 20 | > 20 | > 20 | > 20 | CN(C)CC(=O)Nc1ccc2[nH]c(=O)c3ccccc3c2c1 [PJ34] | > 20
8 | > 20 | > 20 | > 20 | > 20 | > 20 | > 20 | > 20 | > 20 | CN(C(=O)C1(c2ccc(Cl)cc2)CCC1)c1ccccc1 | > 20
9 | > 20 | > 20 | > 20 | > 20 | > 20 | > 20 | > 20 | > 20 | O=C(NN1C(=O)[C@@H]2[C@@H]3C=C[C@@H]([C@H]4C[C@@H]34)[C@@H]2C1=O)c1ccc(C(F)(F)F)cc1 [TECOVIRIMAT] | > 20
10 | > 20 | > 20 | > 20 | > 20 | > 20 | > 20 | > 20 | > 20 | O=C(CP(=O)(O)O)NCCc1cccc(Oc2ccccc2)c1 | > 20
11 | > 20 | > 20 | > 20 | > 20 | > 20 | > 20 | > 20 | > 20 | COc1ccc(C)cc1NC(=O)c1ccc(S(=O)(=O)N2CCCCC2)cc1 | > 20
12 | > 20 | > 20 | > 20 | > 20 | > 20 | > 20 | > 20 | > 20 | O=C1CCC(N2C(=O)c3ccccc3C2=O)C(=O)N1 (stereo unspecified) [THALIDOMIDE] | > 20
13 | > 20 | > 20 | > 20 | > 20 | > 20 | > 20 | > 20 | > 20 | CC#C[C@]1(O)CC[C@H]2[C@@H]3CCC4=CC(=O)CCC4=C3[C@@H](c3ccc(N(C)C)cc3)C[C@@]21C [MIFEPRISTONE] | > 20
14 | > 20 | > 20 | > 20 | > 20 | > 20 | > 20 | > 20 | > 20 | O=C(N[C@H](Cc1cccc2ccccc12)C(=O)NCCc1c[nH]cn1)C1Cc2ccccc2C1 | > 20

The next lines start with the compound.

Row | SMILES | MIC (Klebsiella pneumoniae) [µM] | MIC (Acinetobacter baumannii) [µM] | MIC (Escherichia coli) [µM] | MIC (Pseudomonas aeruginosa [1]) [µM] | MIC (Candida albicans) [µM] | MIC (Pseudomonas aeruginosa [2]) [µM] | MIC (Cryptococcus neoformans) [µM] | MIC (Staphylococcus aureus) [µM] | CC50 (HEK293) [µM]
15 | Oc1c(C(Nc2ccccn2)c2ccccc2)ccc2cccnc12 (stereo unspecified) | > 20 | > 20 | > 20 | > 20 | 20 (≈ 6.55 µg/mL) | > 20 | 20 (≈ 6.55 µg/mL) | > 20 | 19.6
16 | NC(=O)c1nccn([C@@H]2O[C@H](CO)[C@@H](O)[C@H]2O)c1=O | > 20 | > 20 | > 20 | > 20 | > 20 | > 20 | > 20 | > 20 | > 20
17 | O=C(Nc1nnc(-c2ccc(Cl)cc2)o1)c1ccc(F)cc1 | > 20 | > 20 | > 20 | > 20 | > 20 | > 20 | > 20 | > 20 | > 20
18 | O=C(O)[C@H]1C2CCC(CC2)[C@@H]1Nc1nc(-c2c[nH]c3ncc(F)cc23)ncc1F [PIMODIVIR] | > 20 | > 20 | > 20 | > 20 | > 20 | > 20 | > 20 | > 20 | > 20
19 | Nc1nc2c(ncn2COCCO)c(=O)[nH]1 [ACYCLOVIR] | > 20 | > 20 | > 20 | > 20 | > 20 | > 20 | > 20 | > 20 | > 20
20 | CN1CCN(c2ccc3[nH]c(-c4ccc5[nH]c(-c6ccc(O)cc6)nc5c4)nc3c2)CC1 [HOECHST 33258] | > 20 | > 20 | > 20 | > 20 | 5 (≈ 2.12 µg/mL) | 20 (≈ 8.49 µg/mL) | 2.5 (≈ 1.06 µg/mL) | > 20 | > 20
21 | O=C(CCCC(F)(F)F)N1CCC(c2nc(-c3nccs3)no2)CC1 | > 20 | > 20 | > 20 | > 20 | > 20 | > 20 | > 20 | > 20 | > 20
22 | CCN1CCN(Cc2nc3ccc([N+](=O)[O-])cc3c(=O)n2-c2ccccc2F)CC1 | > 20 | > 20 | > 20 | > 20 | > 20 | > 20 | > 20 | > 20 | > 20
23 | CCOc1ccc(C(=O)NCCc2ccccc2)cc1 | > 20 | > 20 | > 20 | > 20 | > 20 | > 20 | > 20 | > 20 | > 20
24 | O=C(NCc1ncc(C(F)(F)F)cc1Cl)c1c(Cl)cccc1Cl | > 20 | > 20 | > 20 | > 20 | > 20 | > 20 | > 20 | > 20 | > 20
